Assay results from ChEMBL document CHEMBL6127065, “Design and Synthesis of c-Met and HDAC Dual Inhibitors for the Treatment of Breast Cancer” (ACS Med Chem Lett, 2024).
Blank lines part the entries; values can stand above or below the compound they belong to.

Columns and labels:
MDA-MB-231 [1] = assay: Induction of cell cycle arrest in human MDA-MB-231 cells assessed as accumulation of cells at S phase at 1 uM incubated for 48 hrs by PI staining based flow cytometry (reference value: 12.56 to 14.76%); assay type: functional
[2] = target: Hepatocyte growth factor receptor (Homo sapiens, UniProt P08581); assay: Inhibition of c-Met (unknown origin) using Poly(Glu:Tyr)(4:1) and ATP as substrate incubated for 45 mins by Kinase-Glo Max reagent based luminescence analysis
MDA-MB-453 = assay: Antiproliferative activity against human MDA-MB-453 cells assessed as reduction in cell growth incubated for 72 hrs by MTT assay; conditions: MDA-MB-453, 72 h
MDA-MB-468 = assay: Antiproliferative activity against human MDA-MB-468 cells assessed as reduction in cell growth incubated for 72 hrs by MTT assay; conditions: MDA-MB-468, 72 h
MDA-MB-231 [3] = assay: Antiproliferative activity against human MDA-MB-231 cells assessed as reduction in cell growth incubated for 72 hrs by MTT assay; conditions: MDA-MB-231, 72 h
MDA-MB-231 [4] = assay: Inhibition of colony formation in human MDA-MB-231 cells at 0.5 to 10 uM incubated for 7 days by crystal violet staining based analysis; assay type: functional, cell-based; conditions: dose 0.5-10 µM, time 7.0 day
[5] = Cytotoxicity against human MCF-10A cells assessed as reduction in cell viability incubated for 72 hrs by MTT assay; assay type: toxicity, cell-based
MDA-MB-231 [6] = assay: Induction of apoptosis in human MDA-MB-231 cells assessed as viable cells at 2.5 uM incubated for 48 hrs by AnnexinV-FITC/PI staining based flow cytometry (reference value: 91.22 to 92.84%); assay type: functional; conditions: read-out: Activity
MDA-MB-231 [7] = assay: Induction of apoptosis in human MDA-MB-231 cells assessed as early apoptotic cells at 2.5 uM incubated for 48 hrs by AnnexinV-FITC/PI staining based flow cytometry (reference value: 1.6 to 2.41%); assay type: functional
MDA-MB-231 [8] = assay: Induction of apoptosis in human MDA-MB-231 cells assessed as late apoptotic cells at 2.5 uM incubated for 48 hrs by AnnexinV-FITC/PI staining based flow cytometry (reference value: 3.77 to 3.84%); assay type: functional
MDA-MB-231 [9] = assay: Induction of apoptosis in human MDA-MB-231 cells assessed as necrotic cells at 2.5 uM incubated for 48 hrs by AnnexinV-FITC/PI staining based flow cytometry (reference value: 1.79 to 2.53%); assay type: functional
MDA-MB-231 [10] = assay: Induction of apoptosis in human MDA-MB-231 cells assessed as viable cells at 5 uM incubated for 48 hrs by AnnexinV-FITC/PI staining based flow cytometry (reference value: 91.22 to 92.84%); assay type: functional; conditions: read-out: Activity
MDA-MB-231 [11] = assay: Induction of apoptosis in human MDA-MB-231 cells assessed as early apoptotic cells at 5 uM incubated for 48 hrs by AnnexinV-FITC/PI staining based flow cytometry (reference value: 1.6 to 2.41%); assay type: functional
MDA-MB-231 [12] = assay: Induction of apoptosis in human MDA-MB-231 cells assessed as late apoptotic cells at 5 uM incubated for 48 hrs by AnnexinV-FITC/PI staining based flow cytometry (reference value: 3.77 to 3.84%); assay type: functional
MDA-MB-231 [13] = assay: Induction of apoptosis in human MDA-MB-231 cells assessed as necrotic cells at 5 uM incubated for 48 hrs by AnnexinV-FITC/PI staining based flow cytometry (reference value: 1.79 to 2.53%); assay type: functional
MDA-MB-231 [14] = assay: Induction of apoptosis in human MDA-MB-231 cells assessed as viable cells at 10 uM incubated for 48 hrs by AnnexinV-FITC/PI staining based flow cytometry (reference value: 91.22 to 92.84%); assay type: functional; conditions: read-out: Activity
MDA-MB-231 [15] = assay: Induction of apoptosis in human MDA-MB-231 cells assessed as early apoptotic cells at 10 uM incubated for 48 hrs by AnnexinV-FITC/PI staining based flow cytometry (reference value: 1.6 to 2.41%); assay type: functional
MDA-MB-231 [16] = assay: Induction of apoptosis in human MDA-MB-231 cells assessed as late apoptotic cells at 10 uM incubated for 48 hrs by AnnexinV-FITC/PI staining based flow cytometry (reference value: 3.77 to 3.84%); assay type: functional
MDA-MB-231 [17] = assay: Induction of apoptosis in human MDA-MB-231 cells assessed as necrotic cells at 10 uM incubated for 48 hrs by AnnexinV-FITC/PI staining based flow cytometry (reference value: 1.79 to 2.53%); assay type: functional
MDA-MB-231 [18] = assay: Induction of apoptosis in human MDA-MB-231 cells assessed as viable cells at […] uM incubated for 48 hrs by AnnexinV-FITC/PI staining based flow cytometry (reference value: 91.22 to 92.84%); assay type: functional; conditions: read-out: Activity
MDA-MB-231 [19] = assay: Induction of apoptosis in human MDA-MB-231 cells assessed as early apoptotic cells at […] uM incubated for 48 hrs by AnnexinV-FITC/PI staining based flow cytometry (reference value: 1.6 to 2.41%); assay type: functional; conditions: 1.25 µM
MDA-MB-231 [20] = assay: Induction of apoptosis in human MDA-MB-231 cells assessed as late apoptotic cells at […] uM incubated for 48 hrs by AnnexinV-FITC/PI staining based flow cytometry (reference value: 3.77 to 3.84%); assay type: functional; conditions: 1.25 µM
MDA-MB-231 [21] = assay: Induction of apoptosis in human MDA-MB-231 cells assessed as necrotic cells at […] uM incubated for 48 hrs by AnnexinV-FITC/PI staining based flow cytometry (reference value: 1.79 to 2.53%); assay type: functional; conditions: 1.25 µM
MDA-MB-231 [22] = assay: Induction of cell cycle arrest in human MDA-MB-231 cells assessed as accumulation of cells at G0/G1 phase at 1 uM incubated for 48 hrs by PI staining based flow cytometry (reference value: 55.36 to 55.82%); assay type: functional
MDA-MB-231 [23] = assay: Induction of cell cycle arrest in human MDA-MB-231 cells assessed as accumulation of cells at G2/M phase at 1 uM incubated for 48 hrs by PI staining based flow cytometry (reference value: 29.42 to 32.08%); assay type: functional
MDA-MB-231 [24] = assay: Induction of cell cycle arrest in human MDA-MB-231 cells assessed as accumulation of cells at G0/G1 phase at 2.5 uM incubated for 48 hrs by PI staining based flow cytometry (reference value: 55.36 to 55.82%); assay type: functional
MDA-MB-231 [25] = assay: Induction of cell cycle arrest in human MDA-MB-231 cells assessed as accumulation of cells at S phase at 2.5 uM incubated for 48 hrs by PI staining based flow cytometry (reference value: 12.56 to 14.76%); assay type: functional
MDA-MB-231 [26] = assay: Induction of cell cycle arrest in human MDA-MB-231 cells assessed as accumulation of cells at G2/M phase at 2.5 uM incubated for 48 hrs by PI staining based flow cytometry (reference value: 29.42 to 32.08%); assay type: functional
MDA-MB-231 [27] = assay: Induction of cell cycle arrest in human MDA-MB-231 cells assessed as accumulation of cells at G0/G1 phase at 10 uM incubated for 48 hrs by PI staining based flow cytometry (reference value: 55.36 to 55.82%); assay type: functional
MDA-MB-231 [28] = assay: Induction of cell cycle arrest in human MDA-MB-231 cells assessed as accumulation of cells at S phase at 10 uM incubated for 48 hrs by PI staining based flow cytometry (reference value: 12.56 to 14.76%); assay type: functional
MDA-MB-231 [29] = assay: Induction of cell cycle arrest in human MDA-MB-231 cells assessed as accumulation of cells at G2/M phase at 10 uM incubated for 48 hrs by PI staining based flow cytometry (reference value: 29.42 to 32.08%); assay type: functional
MDA-MB-231 [30] = assay: Induction of cell cycle arrest in human MDA-MB-231 cells assessed as accumulation of cells at G0/G1 phase at 25 uM incubated for 48 hrs by PI staining based flow cytometry (reference value: 55.36 to 55.82%); assay type: functional
MDA-MB-231 [31] = assay: Induction of cell cycle arrest in human MDA-MB-231 cells assessed as accumulation of cells at S phase at 25 uM incubated for 48 hrs by PI staining based flow cytometry (reference value: 12.56 to 14.76%); assay type: functional
MDA-MB-231 [32] = assay: Induction of cell cycle arrest in human MDA-MB-231 cells assessed as accumulation of cells at G2/M phase at 25 uM incubated for 48 hrs by PI staining based flow cytometry (reference value: 29.42 to 32.08%); assay type: functional

Chain of Hepatocyte growth factor receptor (P08581 whole entry): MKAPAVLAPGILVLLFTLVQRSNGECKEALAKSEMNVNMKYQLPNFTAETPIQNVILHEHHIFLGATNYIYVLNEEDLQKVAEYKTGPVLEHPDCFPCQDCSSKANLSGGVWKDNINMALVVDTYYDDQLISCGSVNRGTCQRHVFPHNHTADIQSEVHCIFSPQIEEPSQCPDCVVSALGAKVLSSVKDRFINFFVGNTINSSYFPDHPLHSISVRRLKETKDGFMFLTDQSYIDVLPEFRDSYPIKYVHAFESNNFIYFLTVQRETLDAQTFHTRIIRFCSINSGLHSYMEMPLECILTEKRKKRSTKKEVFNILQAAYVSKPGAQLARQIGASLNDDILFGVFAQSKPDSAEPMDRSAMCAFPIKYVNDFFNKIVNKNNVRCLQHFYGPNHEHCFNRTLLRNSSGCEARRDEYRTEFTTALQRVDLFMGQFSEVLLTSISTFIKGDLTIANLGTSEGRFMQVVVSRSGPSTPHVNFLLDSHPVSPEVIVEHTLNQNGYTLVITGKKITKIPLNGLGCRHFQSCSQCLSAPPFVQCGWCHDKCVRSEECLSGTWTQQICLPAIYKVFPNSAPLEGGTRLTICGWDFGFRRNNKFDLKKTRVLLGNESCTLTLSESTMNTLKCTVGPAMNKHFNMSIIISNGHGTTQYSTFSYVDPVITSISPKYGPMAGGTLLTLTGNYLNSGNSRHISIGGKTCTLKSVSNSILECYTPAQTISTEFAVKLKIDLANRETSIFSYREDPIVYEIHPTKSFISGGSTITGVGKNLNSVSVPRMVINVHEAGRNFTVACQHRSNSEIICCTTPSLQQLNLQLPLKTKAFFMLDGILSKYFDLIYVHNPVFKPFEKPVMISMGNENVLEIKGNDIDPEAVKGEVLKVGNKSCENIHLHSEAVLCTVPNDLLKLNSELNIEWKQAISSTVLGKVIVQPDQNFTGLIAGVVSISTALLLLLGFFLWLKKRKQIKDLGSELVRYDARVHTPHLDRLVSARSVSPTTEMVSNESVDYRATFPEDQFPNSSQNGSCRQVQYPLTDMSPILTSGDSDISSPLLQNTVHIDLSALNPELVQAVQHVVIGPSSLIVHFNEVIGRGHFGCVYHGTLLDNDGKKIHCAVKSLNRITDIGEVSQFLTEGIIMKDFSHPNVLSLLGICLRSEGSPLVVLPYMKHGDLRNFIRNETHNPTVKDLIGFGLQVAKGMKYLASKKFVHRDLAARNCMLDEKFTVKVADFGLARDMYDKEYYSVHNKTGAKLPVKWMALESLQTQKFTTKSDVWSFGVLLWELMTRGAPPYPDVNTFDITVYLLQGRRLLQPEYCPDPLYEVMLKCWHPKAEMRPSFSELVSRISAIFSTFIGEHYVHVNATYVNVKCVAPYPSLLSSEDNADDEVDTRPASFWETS

Compound: CC(c1ccc2ncccc2c1)n1nnc2ncc(N3CCN(CC(=O)Nc4ccc(F)cc4N)CC3)nc21 (stereo not given)
- IC50 (MDA-MB-453): 22.1 µM
- IC50 (MDA-MB-468): 12.2 µM
- IC50 (MDA-MB-231 [3]): 18.4 µM

Compound: CC(c1ccc2ncccc2c1)n1nnc2ncc(N3CCN(CCCC(=O)Nc4ccccc4N)CC3)nc21 (stereo not given)
- IC50 (MDA-MB-453): 22.9 µM
- IC50 (MDA-MB-468): 18.9 µM
- IC50 (MDA-MB-231 [3]): 22.8 µM

Compound: C[C@@H](c1ccc2nccn2c1)n1nnc2ncc(-c3cnn(C)c3)nc21 [SAVOLITINIB]
- IC50 [2]: 0.00142 µM

Compound: CC(c1ccc2ncccc2c1)n1nnc2ncc(N3CCN(Cc4ccc(CC(=O)Nc5ccccc5N)cc4)CC3)nc21 (stereo not given)
- IC50 (MDA-MB-453): 8.94 µM
- IC50 (MDA-MB-468): 6.35 µM
- IC50 (MDA-MB-231 [3]): 8.64 µM

Second part, led by results:

- IC50 [2]: 0.0549 µM
- IC50 (MDA-MB-453): 3.88 µM
- IC50 (MDA-MB-468): 1.25 µM
- IC50 (MDA-MB-231 [3]): 1.63 µM
Compound: CC(c1ccc2ncccc2c1)n1nnc2ncc(N3CCN(Cc4ccc(/C=C/C(=O)Nc5ccc(F)cc5N)cc4)CC3)nc21 (stereo not given)
- Activity (MDA-MB-231 [1]): 10.25%
- inhibition (MDA-MB-231 [4]): Dose-Dependent Effect
- IC50 at 72 h [5]: > 25 µM
- viability at 2.5 µM (MDA-MB-231 [6]): 87.4%
- Activity (MDA-MB-231 [7]): 3.22%
- Activity (MDA-MB-231 [8]): 7.16%
- Activity (MDA-MB-231 [9]): 2.21%
- viability at 5 µM (MDA-MB-231 [10]): 87.1%
- Activity (MDA-MB-231 [11]): 2.65%
- Activity (MDA-MB-231 [12]): 8.25%
- Activity (MDA-MB-231 [13]): 1.98%
- viability at 10 µM (MDA-MB-231 [14]): 85.2%
- Activity (MDA-MB-231 [15]): 3.12%
- Activity (MDA-MB-231 [16]): 9.5%
- Activity (MDA-MB-231 [17]): 2.15%
- viability at 1.25 µM (MDA-MB-231 [18]): 88.8%
- Activity (MDA-MB-231 [19]): 2%
- Activity (MDA-MB-231 [20]): 5.18%
- Activity (MDA-MB-231 [21]): 4.05%
- Activity (MDA-MB-231 [22]): 68.63%
- Activity (MDA-MB-231 [23]): 21.12%
- Activity (MDA-MB-231 [24]): 71%
- Activity (MDA-MB-231 [25]): 9.97%
- Activity (MDA-MB-231 [26]): 18.03%
- Activity (MDA-MB-231 [27]): 72.67%
- Activity (MDA-MB-231 [28]): 12.11%
- Activity (MDA-MB-231 [29]): 15.22%
- Activity (MDA-MB-231 [30]): 74.44%
- Activity (MDA-MB-231 [31]): 12.08%
- Activity (MDA-MB-231 [32]): 13.48%

- IC50 (MDA-MB-453): 5.91 µM
- IC50 (MDA-MB-468): 3.92 µM
- IC50 (MDA-MB-231 [3]): 6.46 µM
Compound: CC(c1ccc2ncccc2c1)n1nnc2ncc(N3CCN(Cc4ccc(CC(=O)Nc5ccc(F)cc5N)cc4)CC3)nc21 (stereo not given)

- IC50 (MDA-MB-453): 6.28 µM
- IC50 (MDA-MB-468): 4.11 µM
- IC50 (MDA-MB-231 [3]): 5.91 µM
Compound: CC(c1ccc2ncccc2c1)n1nnc2ncc(N3CCN(Cc4ccc(C(=O)Nc5ccc(F)cc5N)cc4)CC3)nc21 (stereo not given)
